Data on 38 molecules can be found in the SangsterLogP compilation.

Each structure is given as a SMILES string.

One data set can be described thus: method code SF, from Craig, N. (1990). Drug Compendium. In Hansch, C (Ed.), Comprehensive Medicinal Chemistry. Pergamon Press.
Conditions: not given
A word on the logP: it is a log measure of how a compound divides between an organic and an aqueous phase. Read a high logP as higher lipophilicity. `Cc1ncc([N+](=O)[O-])n1CCOC(N)=O` came in with a logP of -0.29.
For the molecule `Cc1ncc([N+](=O)[O-])n1CCc1ccncc1`, the logP stood at 0.06.
The molecule `CC(C)/N=C(N)/N=C(\N)Nc1ccc(Cl)cc1` gave a logP of 2.53.
Still for that read-out and setting: under `CN(C)CCC1CN(C)C(=S)c2cnccc2O1` (stereo not drawn) stands 1.08; under `C=CCC1(C(C)CC)C(=O)NC(=O)NC1=O` (stereo not drawn), 1.47.
As for `OC[C@@H](O)[C@H]1O[C@@H]2O[C@H](C(Cl)(Cl)Cl)O[C@@H]2[C@H]1O`, the logP was determined as 1.02.
Molecule `CC(=O)[C@H]1CC[C@H]2[C@@H]3C[C@H](C)C4=CC(=O)CC[C@]4(C)[C@H]3C(=O)C[C@]12C` yielded a logP of 2.75.
In the case of `COc1cc(NS(=O)(=O)c2ccc(N)cc2)ncn1`, the logP is 0.7.
Regarding `CCc1ncc([N+](=O)[O-])n1CCNC(=S)OC`, the logP was 1.46.
On the same count and under the same terms, under `NC(=O)c1csc([C@@H]2O[C@H](CO)[C@@H](O)[C@H]2O)n1` stands -1.73; under `COc1cc(S(C)=O)ccc1-c1nc2ncccc2[nH]1` (stereo not drawn), 1.17.
As to `CCN(CC)CCNc1ccc(CO)c2sc3ccccc3c(=O)c12`, the logP came out at 2.7.
On the same count and under the same terms, the value for `CC(C)S(=O)(=O)n1c(N)nc2ccc(/C(=N\O)c3ccccc3)cc21` was 3.1; that for `N#Cc1ccccc1OCC(O)CNCCNC(=O)Cc1ccc(O)cc1` (stereo not drawn) was 0.92.
On the same count and under the same terms, under `CCC(O)C(CC(C)N(C)C)(c1ccccc1)c1ccccc1` (stereo not drawn) stands 4.27; under `N=C(N)N1CCc2ccccc2C1`, 0.75.
Molecule `CC(=O)O[C@H]1C[C@H](O[C@H]2[C@@H](O)C[C@H](O[C@H]3[C@@H](O)C[C@H](O[C@H]4CC[C@@]5(C)[C@H](CC[C@@H]6[C@@H]5CC[C@]5(C)[C@@H](C7=CC(=O)OC7)CC[C@]65O)C4)O[C@@H]3C)O[C@@H]2C)O[C@H](C)[C@H]1O` showed a lipophilicity (logP) of 1.97.
In the case of `C[C@@H]1C[C@H]2[C@@H]3C[C@H](F)C4=CC(=O)C=C[C@]4(C)[C@@]3(F)[C@@H](O)C[C@]2(C)[C@H]1C(=O)COC(=O)C(C)(C)C`, the log partition coefficient (logP) turned out to be 3.86.
Still for that read-out and setting: the value for `CN1CC[C@@]23CCCC[C@@H]2[C@@H]1Cc1ccc(O)cc13` was 3.11.
In turn, `O=[N+]([O-])c1cnc(-c2ccc(F)cc2)n1CCO` returned a logP of 1.33.
The same measure, in the same setting: the value for `CCC1(CC)C(=O)NCC(C)C1=O` (stereo not drawn) was 0.78; that for `CN(C)CCN1C(=O)c2ccccc2Nc2cc(Cl)ccc21` was 3.73; that for `COc1cc2c(cc1OC)C(CCCCC1NCCc3cc(OC)c(OC)cc31)NCC2` (stereo not drawn) was 3.35.
Same read-out and setting: the value for `Cc1ccccc1-n1c(C)nc2ccccc2c1=O` was 2.5; that for `Nc1ncn([C@@H]2O[C@H](CO)[C@@H](O)[C@@H]2O)c(=O)n1` was -2.17; that for `C[C@]12CCC(=O)C=C1CC[C@@H]1[C@@H]2CC[C@@]2(C)[C@H]1CC[C@]2(O)C(=O)CO` was 2.52.
Consider `CCC(=O)O[C@]1(c2ccccc2)CCN(C)C[C@H]1CC`, for which the logP stood at 3.61.
Same read-out and setting: under `NCc1ccccc1Sc1ccccc1CO` stands 2.39.
In the case of `OCCN1CCN([C@@H]2C[C@@H](c3ccc(F)cc3)c3ccc(C(F)(F)F)cc32)CC1`, the logP was 4.39.
Still for that read-out and setting: under `CCN[C@@H](C)Cc1cccc(C(F)(F)F)c1` stands 3.36.
Same read-out and setting: under `Nc1ccc(S(=O)(=O)c2ccc(N)cc2)cc1` stands 1.03.
On to `CCC(OC(C)=O)C(CC(C)N(C)C)(c1ccccc1)c1ccccc1` (stereo not drawn), for which the logP was 4.27.
Molecule `CSc1ccc(OCc2ncc([N+](=O)[O-])n2C)cc1` showed a logP of 2.5.
In turn, `CCNC1C2CCC(C2)C1c1ccccc1` (stereo not drawn) came in with a logP of 3.2.
As to `NC(=O)CCC/N=C(\c1ccc(Cl)cc1)c1cc(F)ccc1O`, the logP worked out at 2.97.

Staying with this data set, now noted: pH 4.9.
Broadly, the logD is lipophilicity at a set pH, counting ionised and neutral species. The low end stands for a more hydrophilic compound, the high end for a more lipophilic compound. With `CCOC(=O)[C@H](CCc1ccccc1)N[C@H]1CCCN2CCC[C@@H](C(=O)O)N2C1=O`, the logD stood at 0.55.
The same measure, in the same setting: under `CCOC(=O)[C@H](CCc1ccccc1)N[C@@H](C)C(=O)N1CCC[C@H]1C(=O)O` stands -0.07.

The data set is the same for the next values; noted with them: pH 7.4.
On to `CCOC(=O)C=C1SC(N2CCCCC2)C(=O)N1C` (stereo not drawn), for which the logD is 2.3.
